Assay results published in patent US12637469B2, “1H-pyrazole derivative and application thereof as dual target inhibitor of Syk and VEGFR2” (Ocumension Therapeutics (Suzhou) Co., Ltd., priority 2020, dated 2026).

Columns and labels:
[1] = Pharmacokinetic evaluation of ocular administration to mouse (cornea and plasma exposure); assay type: in vivo, C57BL/6 mice; conditions: eye drop, 0.1 mg/animal
Protocol: In order to investigate the eye-to-blood ratio of the in vivo exposure amounts of the compound after ocular administration thereof, LC-MS/MS method was used in this study to determine the exposure amounts of compound 1 in cornea and plasma after the ocular administration of the compound 1 to a mouse, where compound screening and analysis were conducted by using the drug concentration at the same time point as an indicator.
C57BL/6 mice, weighing 18-20 g, were randomly divided into 4 groups after 3-5 days of acclimatization, with each group including three mice, and the mice were administered by eye drops at 5 μL for each eye.
The test animals (C57BL/6 mice) were not fasted before administration, but drank water freely before and during the experiment.
About 0.05 mL of blood was collected from saphenous vein at 1 hour and 3 hours following the eye drop administration, anticoagulated with commercial EDTA-K2, and transferred to a centrifuge for centrifugation. After blood sampling from saphenous vein, the corneas were collected under isoflurane anesthesia. At each of the time points, the plasma and corneas of the mice in the same group were pooled for detection.
Plasma: within 30 minutes the plasma was transferred to be subject to centrifugation at 4° C., 3200 g for 10 minutes, and 20 μL of plasma was taken from each mouse. At each time point, the plasma of the mice in the same group was pooled for detection.
Cornea: the cornea was removed, rinsed twice with pre-cooled normal saline, dried with a paper towel, and put into a 1.5 mL centrifuge tube, weighed with an analytical balance by a peeling method, and finally the body weight was weighed. At each time point, the corneas of the mice in the same group were pooled for detection.
Corneal homogenization method: 1 g of cornea was added to 9 mL of pre-cooled methanol: 15 mM phosphate buffer solution=1:2, an ultrasonic cell disruptor (No. 2 amplitude rod, amplitude 50%, working for 5 s, stopping for 5 s, and ultrasonic treatment for 3 min) was used.

[2] = target: T1, MEK1(h) (Homo sapiens, UniProt Q02750); test: Eurofins KinaseProfiler off-target kinase inhibition; assay type: biochemical
T1 construct: purchased Eurofins (KinaseProfiler service)
Protocol: (§1) In order to investigate the specificity of the inhibition of the target by the compound, in this study, the activity and selectivity of test compound 1 on the off-target kinases in related pathways were tested on the Eurofins kinaseProfiler™ platform, and compound screening and analysis were conducted using IC50 value as the indicator.
(§2) Compound 1 was detected for each selected kinase using the standard Eurofins Kinase Profiler™ protocol, which followed the relevant standard operating procedures. The IC50 values of the inhibitory activity of the test compound 1 on 67 kinases including Abl(h), B-Raf(h), BTK(h) and JAK(h) were analyzed.

[3] = target: T2, Src(1-530)(h) (Homo sapiens, UniProt P12931); test: as above; assay type: biochemical
T2 construct: Src(1-530)(h); purchased Eurofins (KinaseProfiler platform)
Protocol: as §1, §2

[4] = target: T3, JAK3(h) (Homo sapiens, UniProt P52333); test: as above; assay type: biochemical
T3 construct: purchased Eurofins (KinaseProfiler service)
Protocol: as §1, §2

[5] = target: T4, FGFR3(h) (Homo sapiens, UniProt P22607); test: as above; assay type: biochemical
T4 construct: purchased Eurofins (KinaseProfiler platform)
Protocol: as §1, §2

[6] = target: T5, SAPK3(h) (Homo sapiens, UniProt P53778); test: as above; assay type: biochemical
T5 construct: purchased Eurofins (KinaseProfiler platform)
Protocol: as §1, §2

[7] = target: T6, TrkA(h) (Homo sapiens, UniProt P04629); test: as above; assay type: biochemical
T6 construct: purchased Eurofins (KinaseProfiler platform)
Protocol: as §1, §2

[8] = target: T7, JAK1(h) (Homo sapiens, UniProt P23458); test: as above; assay type: biochemical
T7 construct: purchased Eurofins (KinaseProfiler service)
Protocol: as §1, §2

[9] = target: T8, MAP4K4(h) (Homo sapiens, UniProt O95819); test: as above; assay type: biochemical
T8 construct: purchased Eurofins (KinaseProfiler service)
Protocol: as §1, §2

[10] = target: T9, CDK2/cyclinA(h) (Homo sapiens, UniProt P24941); test: as above; assay type: biochemical
T9 construct: purchased Eurofins (KinaseProfiler platform)
Protocol: as §1, §2

[11] = target: T10, IKKα(h) (Homo sapiens, UniProt O15111); test: as above; assay type: biochemical
T10 construct: purchased Eurofins (KinaseProfiler platform)
Protocol: as §1, §2

[12] = target: T11, BRK(h) (Homo sapiens, UniProt Q13882); test: as above; assay type: biochemical
T11 construct: purchased Eurofins (KinaseProfiler platform)
Protocol: as §1, §2

[13] = target: T12, MAPK1(h) (Homo sapiens, UniProt P27361); test: as above; assay type: biochemical
T12 construct: purchased Eurofins (KinaseProfiler service)
Protocol: as §1, §2

[14] = target: T13, Tie2(h) (Homo sapiens, UniProt Q02763); test: as above; assay type: biochemical
T13 construct: purchased Eurofins (KinaseProfiler platform)
Protocol: as §1, §2

[15] = target: T14, MAPKAP-K2(h) (Homo sapiens, UniProt P49137); test: as above; assay type: biochemical
T14 construct: purchased Eurofins (KinaseProfiler service)
Protocol: as §1, §2

[16] = target: T15, SAPK4(h) (Homo sapiens, UniProt O15264); test: as above; assay type: biochemical
T15 construct: purchased Eurofins (KinaseProfiler platform)
Protocol: as §1, §2

T8 sequence (O95819 whole entry): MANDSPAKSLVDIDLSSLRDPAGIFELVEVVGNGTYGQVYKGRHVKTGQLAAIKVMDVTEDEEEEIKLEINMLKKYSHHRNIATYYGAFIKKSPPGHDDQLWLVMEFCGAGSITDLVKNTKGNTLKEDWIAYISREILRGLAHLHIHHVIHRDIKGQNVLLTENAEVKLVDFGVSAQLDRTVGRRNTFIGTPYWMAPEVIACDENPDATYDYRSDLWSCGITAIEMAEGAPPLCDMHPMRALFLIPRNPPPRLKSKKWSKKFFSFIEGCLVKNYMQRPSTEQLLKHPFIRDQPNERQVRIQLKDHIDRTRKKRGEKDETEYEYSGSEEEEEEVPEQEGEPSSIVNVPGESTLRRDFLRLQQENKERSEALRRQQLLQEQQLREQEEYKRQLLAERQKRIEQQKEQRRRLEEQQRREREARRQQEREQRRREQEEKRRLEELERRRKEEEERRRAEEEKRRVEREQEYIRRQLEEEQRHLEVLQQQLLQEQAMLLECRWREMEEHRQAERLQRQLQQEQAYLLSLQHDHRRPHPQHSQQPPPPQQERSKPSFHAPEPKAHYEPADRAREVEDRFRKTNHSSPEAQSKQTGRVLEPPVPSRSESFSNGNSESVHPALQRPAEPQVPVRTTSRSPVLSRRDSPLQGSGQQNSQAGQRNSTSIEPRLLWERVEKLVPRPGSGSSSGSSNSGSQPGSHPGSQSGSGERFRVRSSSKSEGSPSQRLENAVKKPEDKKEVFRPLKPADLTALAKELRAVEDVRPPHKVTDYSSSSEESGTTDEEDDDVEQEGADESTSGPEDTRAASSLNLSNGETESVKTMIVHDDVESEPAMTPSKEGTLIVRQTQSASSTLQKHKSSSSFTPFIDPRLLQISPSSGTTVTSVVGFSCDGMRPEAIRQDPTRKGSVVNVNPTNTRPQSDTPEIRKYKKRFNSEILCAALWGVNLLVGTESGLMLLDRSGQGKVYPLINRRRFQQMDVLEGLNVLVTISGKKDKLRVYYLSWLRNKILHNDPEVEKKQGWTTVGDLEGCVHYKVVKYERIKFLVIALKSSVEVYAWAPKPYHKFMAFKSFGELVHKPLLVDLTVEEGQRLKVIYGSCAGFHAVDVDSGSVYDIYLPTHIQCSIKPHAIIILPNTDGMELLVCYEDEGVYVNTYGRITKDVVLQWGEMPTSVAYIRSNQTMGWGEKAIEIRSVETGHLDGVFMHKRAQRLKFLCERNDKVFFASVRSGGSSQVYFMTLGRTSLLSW
T15 sequence (O15264 whole entry): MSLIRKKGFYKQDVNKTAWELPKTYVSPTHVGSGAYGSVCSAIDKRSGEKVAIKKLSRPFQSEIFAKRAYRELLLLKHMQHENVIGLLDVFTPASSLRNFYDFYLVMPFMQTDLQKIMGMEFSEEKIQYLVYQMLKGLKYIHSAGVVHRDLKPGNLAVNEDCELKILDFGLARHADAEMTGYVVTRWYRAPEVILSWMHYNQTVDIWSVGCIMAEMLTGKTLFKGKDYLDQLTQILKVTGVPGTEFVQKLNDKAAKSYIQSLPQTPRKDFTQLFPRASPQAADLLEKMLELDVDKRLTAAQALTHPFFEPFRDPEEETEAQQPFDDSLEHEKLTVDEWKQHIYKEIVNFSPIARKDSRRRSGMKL
T7 sequence (P23458 whole entry): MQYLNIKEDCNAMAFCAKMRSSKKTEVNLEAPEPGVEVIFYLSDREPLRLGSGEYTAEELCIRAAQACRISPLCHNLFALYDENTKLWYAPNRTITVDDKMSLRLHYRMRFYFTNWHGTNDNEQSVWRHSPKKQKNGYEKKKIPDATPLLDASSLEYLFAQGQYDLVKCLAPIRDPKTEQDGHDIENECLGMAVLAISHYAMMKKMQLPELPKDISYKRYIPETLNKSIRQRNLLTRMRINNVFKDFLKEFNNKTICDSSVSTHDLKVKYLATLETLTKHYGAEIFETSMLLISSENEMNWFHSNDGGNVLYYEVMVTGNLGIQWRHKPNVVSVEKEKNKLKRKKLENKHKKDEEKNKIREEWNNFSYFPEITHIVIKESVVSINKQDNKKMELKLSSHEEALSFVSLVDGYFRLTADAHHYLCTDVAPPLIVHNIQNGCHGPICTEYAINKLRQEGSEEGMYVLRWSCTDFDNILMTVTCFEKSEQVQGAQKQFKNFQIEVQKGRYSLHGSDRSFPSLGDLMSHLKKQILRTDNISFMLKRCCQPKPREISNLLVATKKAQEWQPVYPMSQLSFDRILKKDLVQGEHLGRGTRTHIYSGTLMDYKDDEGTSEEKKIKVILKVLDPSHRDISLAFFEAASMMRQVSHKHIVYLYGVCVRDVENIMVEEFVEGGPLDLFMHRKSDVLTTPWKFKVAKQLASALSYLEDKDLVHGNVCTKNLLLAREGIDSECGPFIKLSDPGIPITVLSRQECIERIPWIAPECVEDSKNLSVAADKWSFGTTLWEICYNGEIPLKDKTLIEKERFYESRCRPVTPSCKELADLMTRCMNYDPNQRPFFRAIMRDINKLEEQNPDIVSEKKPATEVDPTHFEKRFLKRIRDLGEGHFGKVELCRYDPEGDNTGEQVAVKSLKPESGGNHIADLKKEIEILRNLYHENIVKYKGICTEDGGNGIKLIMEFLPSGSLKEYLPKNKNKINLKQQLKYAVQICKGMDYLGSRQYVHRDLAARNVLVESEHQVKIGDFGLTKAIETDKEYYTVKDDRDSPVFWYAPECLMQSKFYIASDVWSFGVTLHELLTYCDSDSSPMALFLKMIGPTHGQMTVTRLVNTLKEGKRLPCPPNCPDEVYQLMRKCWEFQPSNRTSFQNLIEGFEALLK
T2 sequence (P12931 1-530): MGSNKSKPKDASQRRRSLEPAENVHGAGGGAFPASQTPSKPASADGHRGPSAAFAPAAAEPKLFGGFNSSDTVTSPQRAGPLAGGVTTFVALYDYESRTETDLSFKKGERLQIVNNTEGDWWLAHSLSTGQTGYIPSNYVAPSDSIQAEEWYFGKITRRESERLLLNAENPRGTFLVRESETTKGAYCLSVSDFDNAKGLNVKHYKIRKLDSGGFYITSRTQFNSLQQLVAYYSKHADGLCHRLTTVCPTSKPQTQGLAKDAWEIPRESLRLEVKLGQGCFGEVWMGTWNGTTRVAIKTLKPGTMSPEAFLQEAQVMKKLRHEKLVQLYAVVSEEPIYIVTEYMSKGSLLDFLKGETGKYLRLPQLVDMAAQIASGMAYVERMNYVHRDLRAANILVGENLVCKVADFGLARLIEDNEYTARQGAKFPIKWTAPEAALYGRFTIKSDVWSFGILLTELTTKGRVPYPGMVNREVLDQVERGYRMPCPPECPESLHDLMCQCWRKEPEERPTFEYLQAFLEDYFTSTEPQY
T14 sequence (P49137 whole entry): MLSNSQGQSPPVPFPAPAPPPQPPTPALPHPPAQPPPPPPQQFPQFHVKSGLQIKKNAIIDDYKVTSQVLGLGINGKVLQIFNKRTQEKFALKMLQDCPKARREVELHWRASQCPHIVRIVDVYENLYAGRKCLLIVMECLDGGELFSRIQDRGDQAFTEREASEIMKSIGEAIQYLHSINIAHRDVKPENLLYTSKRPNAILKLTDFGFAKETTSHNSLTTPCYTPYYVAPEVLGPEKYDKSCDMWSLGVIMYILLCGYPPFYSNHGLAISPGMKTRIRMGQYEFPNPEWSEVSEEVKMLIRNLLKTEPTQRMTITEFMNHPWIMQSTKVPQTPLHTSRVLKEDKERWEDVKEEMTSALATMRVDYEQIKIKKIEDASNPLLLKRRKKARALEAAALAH
T5 sequence (P53778 whole entry): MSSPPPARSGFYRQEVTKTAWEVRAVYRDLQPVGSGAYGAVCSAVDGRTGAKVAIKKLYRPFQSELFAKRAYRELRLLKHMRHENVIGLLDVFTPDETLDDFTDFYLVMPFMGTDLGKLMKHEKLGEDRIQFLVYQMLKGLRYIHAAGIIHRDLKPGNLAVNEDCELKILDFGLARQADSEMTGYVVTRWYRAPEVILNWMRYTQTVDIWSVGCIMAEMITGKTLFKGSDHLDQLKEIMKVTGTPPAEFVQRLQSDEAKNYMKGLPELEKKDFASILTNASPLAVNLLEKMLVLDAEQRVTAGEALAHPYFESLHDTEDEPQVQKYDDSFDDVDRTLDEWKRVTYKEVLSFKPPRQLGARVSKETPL
T4 sequence (P22607 23-806): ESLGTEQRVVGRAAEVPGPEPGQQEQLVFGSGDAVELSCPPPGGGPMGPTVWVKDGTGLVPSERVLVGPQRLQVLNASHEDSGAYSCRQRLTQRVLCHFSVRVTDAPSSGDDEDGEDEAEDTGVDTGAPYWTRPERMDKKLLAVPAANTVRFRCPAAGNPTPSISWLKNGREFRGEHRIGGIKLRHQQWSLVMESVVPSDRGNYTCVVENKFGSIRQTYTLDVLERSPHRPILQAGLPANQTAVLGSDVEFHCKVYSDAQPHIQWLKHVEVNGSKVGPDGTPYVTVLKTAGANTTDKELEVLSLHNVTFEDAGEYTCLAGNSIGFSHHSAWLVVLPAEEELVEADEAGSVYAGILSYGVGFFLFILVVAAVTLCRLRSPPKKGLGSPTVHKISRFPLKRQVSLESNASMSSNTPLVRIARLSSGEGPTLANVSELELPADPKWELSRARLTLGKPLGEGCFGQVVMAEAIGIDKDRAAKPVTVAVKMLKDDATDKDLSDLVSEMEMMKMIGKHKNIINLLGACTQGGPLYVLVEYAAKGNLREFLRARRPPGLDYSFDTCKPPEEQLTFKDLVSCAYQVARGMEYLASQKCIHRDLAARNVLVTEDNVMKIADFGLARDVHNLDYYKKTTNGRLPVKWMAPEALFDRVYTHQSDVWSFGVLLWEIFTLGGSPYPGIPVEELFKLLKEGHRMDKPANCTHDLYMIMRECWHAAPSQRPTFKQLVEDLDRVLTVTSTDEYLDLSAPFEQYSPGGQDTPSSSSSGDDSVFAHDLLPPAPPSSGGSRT

- Kp at 1 h ([1]; C57BL/6, cornea / plasma, other: eye drops (ocular administration), 1 hour, read-out: eye-to-blood ratio): 641
- Kp at 3 h ([1]; C57BL/6, cornea / plasma, other: eye drops (ocular administration), 3 hours, read-out: eye-to-blood ratio): 427
- concentration at 1 h ([1]; C57BL/6, plasma, other: eye drops (ocular administration), 1 hour, read-out: Drug concentration in plasma): 10.4 nM
- concentration at 3 h ([1]; C57BL/6, plasma, other: eye drops (ocular administration), 3 hours, read-out: Drug concentration in plasma): 6.8 nM
- Drug concentration in corneal ([1]; 1 hour): 6670 nmol/kg
- Drug concentration in corneal ([1]; 3 hours): 2910 nmol/kg
- IC50 [2]: > 10000 nM
- IC50 [3]: 827 nM
- IC50 [4]: 550 nM
- IC50 [5]: > 10000 nM
- IC50 [6]: > 10000 nM
- IC50 [7]: 112 nM
- IC50 [8]: 663 nM
- IC50 [9]: 63 nM
- IC50 [10]: > 10000 nM
- IC50 [11]: 946 nM
- IC50 [12]: 775 nM
- IC50 [13]: > 10000 nM
- IC50 [14]: 2060 nM
- IC50 [15]: > 10000 nM
- IC50 [16]: > 10000 nM
SMILES: c1cn2c(n1)c(Nc1ccc(N3CCOCC3)cc1)nc1ccc(-c3cn[nH]c3)cc12 [Compound 1]
